This is an account of results in patent US20260125359A1, “HETEROARYL COMPOUNDS AS MULTI-TARGET PROTEIN KINASE INHIBITORS” (FUJIAN HAIXI PHARMACEUTICALS CO., LTD., priority 2023, published 2026).

For the first experiment, the system named is M-NFS-60 cells. Briefly: M-NFS-60 cell in vitro assay (CCK, 48 h, M-CSF factor medium). The format is cell-based. As to conditions: M-NFS-60 cells; read-out: M-NFS-60cellassay IC50. A digest of the protocol:
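Mouse M-NFS-60 cells (2000/well) in RPMI-1640 with 10% serum and M-CSF (25 ng/ml) were pre-incubated 4 h, then exposed to DMSO-diluted compound gradients for 48 h at 5% CO2. Viability read by CCK, 2 h, OD 450 nm; IC50 from curve fitting.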
For `CN(C)Cc1cccc(NC(=O)c2cccc3c2CC[C@@H]3Oc2cncc(-c3cnn(C)c3)c2)c1` [Compound 19e], the IC50 fell in the range of 50 to 200 nM. The same measure, in the same setting: to `Cc1ncc(-c2cnn(C)c2)cc1O[C@H]1CCc2c(C(=O)Nc3ccc(C(F)(F)F)cc3)cccc21` [Compound 19w] belongs 200 to 500 nM; to `Cn1ncc2ncc(O[C@H]3CCc4c(NC(=O)c5cccc(C6CC6)c5)cccc43)cc21` [Compound 77, (S)-3-cyclopropyl-N-(1-((1-methyl-1H-pyrazolo[4,3-b]pyridin-6-yl)oxy)-2,3-dihydro-1H-inden-4-yl)benzamide], 50 to 200 nM. Take `Cn1cc(-c2cncc(O[C@H]3CCc4c(C(=O)Nc5cccc(C(C)(C)N)c5)cccc43)c2)cn1` [Compound 19m]: the IC50 fell in the range of 200 to 500 nM. On the same count and under the same terms, to `Cc1cccc(C(=O)Nc2ccc(F)c3c2CC[C@@H]3Nc2cncc(-c3cnn(C)c3)c2)c1` [Compound 45, (S)—N-(7-fluoro-1-((5-(1-methyl-1H-pyrazol-4-yl)pyridin-3-yl)amino)-2,3-dihydro-1H-inden-4-yl)-3-methylbenzamide] belongs under 50 nM; to `CN(C)Cc1cc(NC(=O)c2cccc3c2CC[C@@H]3Oc2cncc(-c3cnn(C)c3)c2)ccc1C(F)(F)F` [Compound 19q], under 50 nM; to `CN(C)CCOc1cccc(NC(=O)c2cccc3c2CC[C@@H]3Oc2cnc3cnn(C)c3c2)c1` [Compound 76ap], 50 to 200 nM.

Turning to `COc1ccc(F)c(NC(=O)c2cccc3c2CC[C@@H]3Oc2cnc3cnn(C)c3c2)c1` [Compound 76ag], the IC50 is 50 to 200 nM.

With `Cn1cc2ncc(N[C@H]3CCc4c(Nc5cc(C6(C(F)(F)F)CCCC6)on5)cccc43)cc2n1` [Compound 91o], the IC50 was under 50 nM. Regarding `COc1cc(NC(=O)c2cccc3c2CC[C@@H]3Oc2cnc3cnn(C)c3c2)ccc1F` [Compound 76ad], the IC50 was under 50 nM.

As to `Cn1cc2ncc(N[C@H]3CCc4c(Nc5noc(C(C)(C)C(F)(F)F)n5)cccc43)cc2n1` [Compound 93f], the IC50 was under 50 nM. Still for that read-out and setting: to `Cn1cc2ncc(N[C@H]3CCc4c(Nc5noc(C(C)(C)CF)n5)cccc43)cc2n1` [Compound 93o] belongs under 50 nM; to `Cn1ncc2ncc(N[C@H]3CCc4c(C(=O)Nc5cccc(C6CC6)c5)cccc43)nc21` [Compound 88, (S)—N-(3-cyclopropylphenyl)-1-((1-methyl-1H-pyrazolo[3,4-b]pyrazin-6-yl)amino)-2,3-dihydro-1H-indene-4-carboxamide], under 50 nM. On the same count and under the same terms, to `Cn1ncc2ncc(N[C@H]3CCc4c(Nc5cc(C(C)(C)C(F)(F)F)on5)cccc43)nc21` [Compound 87, (S)—N′-(1-methyl-1H-pyrazolo[3,4-b]pyrazin-6-yl)-N^4-(5-(1,1,1-trifluoro-2-methylpropan-2-yl)isoxazol-3-yl)-2,3-dihydro-1H-indene-1,4-diamine] belongs under 50 nM. `Cn1cc2ncc(N[C@H]3CCc4c(Nc5noc(C6(C)CC6)n5)cccc43)cc2n1` [Compound 93d]: the IC50 was under 50 nM. Same read-out and setting: under `COc1c(Cl)cccc1NC(=O)c1cccc2c1CC[C@@H]2Oc1cnc2cn(C)nc2c1` [Compound 76be] stands 50 to 200 nM. `Cn1cc2ncc(N[C@H]3CCc4c(Nc5noc(C6(C(F)(F)F)CCC6)n5)cccc43)cc2n1` [Compound 93h]: the IC50 is under 50 nM. The same measure, in the same setting: to `COc1cc(NC(=O)c2cccc3c2CC[C@@H]3N(C)c2cnc3cnn(C)c3c2)ccc1F` [Compound 80d] belongs under 50 nM; to `COc1cccc(NC(=O)c2cccc3c2CC[C@@H]3N(C)c2cnc3cn(C)nc3c2)c1F` [Compound 80m], under 50 nM. As to `Cn1cc(-c2cncc(N[C@H]3CCc4c(C(=O)NN5CCCCC5)cccc43)n2)cn1` [Compound 27j], the half-inhibitory concentration (IC50) is over 500 nM. Still for that read-out and setting: under `CN(c1cnc2cnn(C)c2c1)[C@H]1CCc2c(C(=O)Nc3cccc(C4CC4)c3)cccc21` [Compound 80a] stands under 50 nM; under `Cn1cc(-c2cncc(N[C@H]3CCc4c(NC(=O)c5cccc(CN6CCCCC6)c5)cccc43)c2)cn1` [Compound 28a], over 500 nM. The same measure, in the same setting: under `Cn1cc2ncc(N[C@H]3CCc4c(Nc5cc(C(C)(C)C(F)(F)F)on5)cccc43)cc2n1` [Compound 91j] stands under 50 nM; under `Cn1cc2ncc(N[C@H]3CCc4c(CNc5cccc(C6CC6)c5)cccc43)cc2n1` [Compound 96a], 50 to 200 nM. On the same count and under the same terms, under `Cc1cccc(C(=O)Nc2cccc3c2CC[C@@H]3Nc2cncc(N3CCN(C)CC3)n2)c1` [Compound 31, (S)-3-methyl-N-(1-((6-(4-methylpiperazin-1-yl)pyrazin-2-yl)amino)-2,3-dihydro-1H-inden-4-yl)benzamide] stands 200 to 500 nM; under `Cn1cc(-c2cncc(N[C@H]3CCc4c(Nc5cc(-c6ccccc6)on5)cccc43)c2)cn1` [Compound 42r], 50 to 200 nM.

As to `CN1CCc2cc(NC(=O)c3cccc4c3CC[C@@H]4Nc3cncc(-c4cnn(C)c4)c3)ccc2C1` [Compound 14ay], the IC50 is 50 to 200 nM. Turning to `Cc1ccc(F)c(NC(=O)c2cccc3c2CC[C@@H]3N(C)c2cnc3cnn(C)c3c2)c1` [Compound 80y], the half-maximal inhibitory concentration (IC50) is under 50 nM. Consider `Cn1cc(-c2cncc(N[C@H]3CCc4c(C(=O)Nc5cncc(Cl)c5)cccc43)n2)cn1` [Compound 27k], for which the IC50 is under 50 nM. As for `CC(C)(C)c1cc(Nc2cccc3c2CC[C@@H]3Nc2cncc(Cl)c2)n[nH]1` [Compound 42e], the IC50 was over 500 nM. Turning to `Cc1cccc(C(=O)Nc2cccc3c2CC[C@@H]3Nc2cncc(-c3cnn(C)c3)c2)c1` [Compound 12, (S)-3-methyl-N-(1-((5-(1-methyl-1H-pyrazol-4-yl)pyridin-3-yl)amino)-2,3-dihydro-1H-inden-4-yl)benzamide], the IC50 was under 50 nM. For the compound `Cn1cc(-c2cnc(N)c(O[C@H]3CCc4c(NC(=O)c5csc6ccccc56)cccc43)c2)cn1` [Compound 3d], the IC50 is under 50 nM. With `Cn1cc(-c2cncc(N[C@H]3CCc4c(CNc5cccc(C6CC6)c5)cccc43)c2)cn1` [Compound 59b], the IC50 lay within 200 to 500 nM.

With `Cn1cc(-c2cncc(N[C@H]3CCc4c(C(=O)Nc5cccc(C6CC6)c5)ccnc43)c2)cn1` [Compound 55, (S)—N-(3-cyclopropylphenyl)-7-((5-(1-methyl-1H-pyrazol-4-yl)pyridin-3-yl)amino)-6,7-dihydro-5H-cyclopenta[b]pyridine-4-carboxamide], the IC50 was in the range of 200 to 500 nM. `Cn1cc(-c2cncc(N[C@H]3CCc4c(C(=O)Nc5ccc(Cl)c(F)c5)cccc43)c2)cn1` [Compound 14ao]: the IC50 is under 50 nM. Take `Cn1cc2ncc(N[C@H]3CCc4c(Nc5ncc(C(C)(C)C)s5)cccc43)cc2n1` [Compound 91h]: the half-inhibitory concentration (IC50) was under 50 nM. Same read-out and setting: under `CN1CCN(c2cccc(C(=O)Nc3cccc4c3CC[C@@H]4Nc3cncc(-c4cnn(C)c4)n3)c2)CC1` [Compound 25e] stands 50 to 200 nM; under `Cn1ncc2ncc(N[C@H]3CCc4c(Nc5ncc(C(C)(C)C)s5)cccc43)cc21` [Compound 91f], under 50 nM. On the same count and under the same terms, to `Cn1cc(-c2cncc(NC3CC(O)c4c(NC(=O)c5ccc(C(F)(F)F)cc5)cccc43)c2)cn1` (stereo not shown) [Compound 71a, N-(3-hydroxy-1-((5-(1-methyl-1H-pyrazol-4-yl)pyridin-3-yl)amino)-2,3-dihydro-1H-inden-4-yl)-4-(trifluoromethyl)benzamide] belongs 50 to 200 nM.

As to `Cc1cccc(NCc2cccc3c2CC[C@@H]3Nc2cnc3cn(C)nc3c2)c1` [Compound 96b], the IC50 fell in the range of 50 to 200 nM. Turning to `CN1CCC[C@@H]1c1nc(Nc2cccc3c2CC[C@@H]3Nc2cnc3cn(C)nc3c2)no1` [Compound 93b], the IC50 is 50 to 200 nM. `Cc1cc(C(=O)Nc2cccc3c2CC[C@@H]3Nc2cc(-c3cnn(C)c3)cnc2N)ccc1F` [Compound 6, (S)—N-(1-((2-amino-5-(1-methyl-1H-pyrazol-4-yl)pyridin-3-yl)amino)-2,3-dihydro-1H-inden-4-yl)-4-fluoro-3-methylbenzamide]: the IC50 fell in the range of 50 to 200 nM.

`Cc1ccc(F)c(NC(=O)c2cccc3c2CC[C@@H]3N(C)c2cnc3cn(C)nc3c2)c1` [Compound 80n]: the concentration for half-maximal inhibition (IC50) was under 50 nM. On the same count and under the same terms, under `Cn1cc2ncc(O[C@H]3CCc4c(C(=O)Nc5ccc(F)c(Cl)c5)cccc43)cc2n1` [Compound 76as] stands under 50 nM. The same measure, in the same setting: to `Cn1cc2ncc(N[C@H]3CCc4c(Nc5cc(C6(C(F)(F)F)CC6)on5)cccc43)cc2n1` [Compound 91m] belongs under 50 nM. Take `COc1cc(NC(=O)c2cccc3c2CC[C@@H]3Oc2cnc3cn(C)nc3c2)ccc1F` [Compound 76aq]: the IC50 was under 50 nM. On the same count and under the same terms, under `Cn1cc(-c2cncc(O[C@H]3CCc4c(C(=O)Nc5ccc6c(c5)OCCO6)cccc43)c2)cn1` [Compound 19n] stands under 50 nM. On to `Cn1cc(-c2cncc(N[C@H]3CCc4c(C(=O)Nc5cccc(C(F)(F)F)c5)cccc43)c2)cn1` [Compound 14ax], for which the IC50 was under 50 nM. The same measure, in the same setting: under `CC(C)(CO)c1cc(Nc2cccc3c2CC[C@@H]3Nc2cncc(Cl)c2)no1` [Compound 42c] stands under 50 nM; under `Cn1cc(-c2cncc(N[C@H]3CCc4c(C(=O)Nc5ccc(Cl)c(C(F)(F)F)c5)cccc43)c2)cn1` [Compound 14ad], under 50 nM; under `Cn1cc(-c2cnc(N)c(O[C@H]3CCc4c(Nc5cc(C(C)(C)C)on5)cccc43)c2)cn1` [Compound 68, (S)—N-(1-((2-amino-5-(1-methyl-1H-pyrazol-4-yl)pyridin-3-yl)oxy)-2,3-dihydro-1H-inden-4-yl)-5-(tert-butyl) isoxazol-3-amine], 200 to 500 nM.

The same experiment, now with this note: read-out: M-NFS-60cellassay IC50(nM).
In the case of `Cc1cccc(NC(=O)c2cccc3c2CC[C@@H]3Nc2cncc(C3=CCN(C)CC3)n2)c1` [Compound 33, (S)-1-((6-(1-methyl-1,2,3,6-tetrahydropyridin-4-yl)pyrazin-2-yl)amino)-N-(m-tolyl)-2,3-dihydro-1H-indene-4-carboxamide], the IC50 was 50 to 200 nM.

By IC50 is commonly meant the midpoint of a concentration-inhibition curve.
